Test results: patent publication US20170045513A1, “METHODS OF DIAGNOSING CELIAC DISEASE USING IP-10” (ImmusanT, Inc., priority 2014, published 2017)
Non-standard residues stand in square brackets, D forms with d. pGlu = O=C1CC[C@@H](C(=O)O)N1

Experiments:
Format in all cases: cell-based, human
[1] = system: gluten-reactive T cells; test: 96-well plate whole blood cytokine release, IP-10 by MAGPIX multiplex bead assay; conditions: for Percent of maximal response to individual gluten peptides, IP-10: after oral gluten challenge; for IP-10 WB MAGPIX % max Mean: n = 10, blood after oral gluten challenge, individual peptides 5 μM (Peptide 2* of P14, Pepscan: 10 μg/mL (5.45 μM))
[2] = system: gluten-reactive T cells; test: Overnight IFNγ ELISpot assay with fresh PBMC; conditions: for IFNγ ELISpot % max Mean: n = 5, blood after oral gluten challenge, individual peptides 5 μM (Peptide 2* of P14, Pepscan: 10 μg/mL (5.45 μM)); for Percent of maximal response to individual gluten peptides, ELISp: after oral gluten challenge
Method: HLA-DQ2.5-positive celiac disease subjects on gluten-free diet were used in this study. Blood was collected immediately before and 6 days after commencing 3-day oral gluten challenge. Whole blood or PBMCs were incubated with pools or single peptides derived from gluten or recall antigens. IFNγ and IP-10 levels were measured in plasma from the whole blood that was incubated in 96-well plates with peptides or peptide pools. Plasma cytokine/chemokine levels were measured by MAGPIX® multiplex bead assay (IFNγ and IP-10) or by ELISA (IFNγ and IP-10), and PBMC separated from the same blood sample were incubated in overnight IFNγ ELISpot assays.
Overnight IFNγ ELISpot assays (Human IFN-γ ELISpotPRO kit, transparent, ALP; Mabtech AB, #3420-2APT-10) were performed using PBMC freshly separated from heparinized blood diluted 1:1 in PBS with 2% fetal bovine serum (Stemcell Technologies #07905; Vancouver, BC, V5Z 1B3, Canada) overlaid on density gradient medium (Ficoll-Paque™ PLUS; GE Healthcare Lice Sciences #:17-1440-02) in SepMate™-50 tubes (Stemcell Technologies #15460). PBMC (8 million/mL) were resuspended in serum-free medium with gentamicin and phenol red (X-VIVO™15; Lonza, Walkersville Mass. 21793). PBMC (0.4 million/50 pt/well) and incubated with 50 μL 80% X-vivo15, 0.2% DMSO and 20% PBS in three triplicate wells (“medium only”), or with 50 μL PHA-L 20 μg/ml or peptide at 2× final concentration in 80% X-vivo15, 0.2% DMSO and 20% PBS. Peptide solutions to be added to individual ELISpot wells were prepared in 96-well U-bottom plates (60 pt/well) that were then sealed with adhesive ELISA plate cover slips before replacing the plastic lid and being frozen at −80° C. 96-well plates containing peptide solutions were thawed at room temperature for 10 min while being centrifuged at 300 g immediately prior to being added to ELISpot wells. Peptide pools and mitogen were assessed in triplicate wells, and individual peptides were assessed in duplicate wells. X-VIVO™15 (50 μL) was incubated with 80% X-vivo15, 0.2% DMSO and 20% PBS (50 μL) in triplicate wells (“no PBMC” control). A Zeiss automated ELISpot counter was used to determine spot forming units (SFU) per well (Zellnet Inc., Fort Lee, N J 07024). Laboratory staff were unaware of the arrangement of peptide solutions in ELISpot wells during assay setup and plate counting.

[3] = system: gluten-reactive T cells; test: Cytokine release assays taken together (IFNγ ELISpot, whole blood IFNγ and IP-10, in-tube IFNγ ELISA)
Method: Gluten peptide solutions for addition to whole blood were arranged according to standardized templates in sterile 96-well U-bottom plates (30 μL/well). Plates were sealed with adhesive ELISA plate cover slips before the plastic lid was replaced and being frozen at −80° C. Whole blood assay (WBA) “medium” (1% DMSO in 90% PBS and 9% normal saline), mitogen (PHA-L, Sigma-Aldrich #L2769; St Louis Mo.) 100 μg/ml in WBA medium, and CEF diluted to 10 μg/ml in PBS with a final concentration of 1% DMSO were frozen separately in sterile cryovials. 96-well plates and cryovials with frozen incubation solutions were shipped on dry ice to the clinical site where blood was collected and incubations performed. Solutions were thawed at room temperature for 10 min just before being added to whole blood. 96-well plates were thawed while being centrifuged at 300 g to avoid surface condensation. A multi-channel pipette was used to efficiently transfer 25 μL of peptide solutions from the original 96-well plate to corresponding wells in a fresh sterile 96-well U-bottom plate. Once incubation solutions had been added, 225 μL of whole blood was added to each well and the plate transferred to incubate for 24 h at 37° C. 5% CO2. […] Individual peptides were incubated at a final assay concentration of 51.1M. Final concentrations of individual peptides assessed in P3 was 0.05-50 μg/mL, and in P14 and P13 pools 0.025-25 μM. The P71 pool was tested at between 0.005-10 pg/mL, the highest tested concentration being the maximal possible not exceeding 0.1% DMSO. Peptide pools, mitogen, and medium only were assessed in triplicate wells, and on Day-6 individual peptides were assessed in duplicate wells. Incubations were terminated after 24 h, and 96-well plates centrifuged at 300 g for 10 min. A total of approximately 90 to 120 μL of plasma was removed from each well taking care to avoid red cell contamination, and transferred into corresponding wells of two further 96-well plates (one with 30 μL/well and the residual in the second plate). Plasmas were frozen at −80° C. and later shipped on dry ice to the central lab where IP-10 and IFNγ multiplex bead assays were performed according to manufacturer's instructions using 25 μL plasma per well (Milliplex® MAP Human Cytokine/Chemokine Magnetic Bead Panel #HCYTOMAG-60k-02; EMD Millipore Corp., Billerica, Mass. 01821) and analysed with the Luminex® MAGPIX® System xPONENT® software (Luminex Corporation, Austin Tex. 78727). Plasma cytokine levels for each assay condition were expressed as the mean analyte concentration of each of the three replicate incubations. Laboratory staff were unaware of the arrangement of peptide solutions incubated with during assay setup and plate counting.
Aliquots of PBS, P3 peptides diluted in PBS (final concentration in blood 3× 50 or CEF to a final concentration 1 μg/mL were prepared in sterile cryovials (0.11 mL/vial) and stored frozen (−80° C.) until immediately before use. P3, CEF and two PBS aliquots were drawn up in separate sterile 0.3 mL insulin syringes with attached 29G×½″ needle (Terumo, SS*30M2913; Elkton Md. 21921). P3, CEF and one PBS aliquot was injected through the stoppers of three separate QuantiFERON® NIL tubes already containing 1 mL blood, and one aliquot of PBS was injected into a QuantiFERON® MITOGEN tube already containing 1 mL blood. All four tubes containing blood and incubation solution were gently inverted ten-times and transferred to incubate at 37° C. 5% CO2. After for 24 h, tubes were centrifuged 300 g 10 min. Plasma was separated and equal volumes placed in two 1.5 mL cryovials. Frozen plasmas were transferred to the central lab where IFNγ levels were measured in triplicate 50 μL samples by ELISA (MABtech Human IFN-γ ELISA development kit HRP, 3420-1H-6; capture mAb 1-D1K). […]

[4] = system: gluten-reactive T cells; test: 96-well plate whole blood cytokine release, IFNγ by MAGPIX multiplex bead assay; conditions: for IFNγ WB MAGPIX % max Mean: n = 8, blood after oral gluten challenge, individual peptides 5 μM (Peptide 2* of P14, Pepscan: 10 μg/mL (5.45 μM)); for Percent of maximal response to individual gluten peptides, IFNg: after oral gluten challenge

Q: For “(pE)QPFPQPEQPFPWQP-amide ([pGlu]QPFPQPEQPFPWQP-NH2; SMILES NC(=O)CC[C@H](NC(=O)[C@H](Cc1c[nH]c2ccccc12)NC(=O)[C@@H]1CCCN1C(=O)[C@H](Cc1ccccc1)NC(=O)[C@@H]1CCCN1C(=O)[C@H](CCC(N)=O)NC(=O)[C@H](CCC(=O)O)NC(=O)[C@@H]1CCCN1C(=O)[C@H](CCC(N)=O)NC(=O)[C@@H]1CCCN1C(=O)[C@H](Cc1ccccc1)NC(=O)[C@@H]1CCCN1C(=O)[C@H](CCC(N)=O)NC(=O)[C@@H]1CCC(=O)N1)C(=O)N1CCC[C@H]1C(N)=O) [Peptide 2, two preparations tested separately: CSBio (5 μM) and Pepscan re-synthesis (10 μg/mL)]”, which “Percent of maximal response to individual gluten peptides, IP-10” value (shortened to “Percent of maximal response … IP-10”) ([1]; Subject 3, Max. 9492 pg/mL) is on record?
A: ≥ 100 % of max

Q: And the “Percent of maximal response … IP-10” value ([1]; Subject 4, Max. 9463 pg/mL)?
A: ≥ 100 % of max

Q: And the “IP-10 WB MAGPIX % max Mean” value [1]?
A: 43 % max

Q: What about the “IP-10 WB MAGPIX % max Mean” value ([1]; listed as Peptide 2*) of the same substance?
A: 49 % max

Q: And the “IFNγ ELISpot % max Mean” value [2]?
A: 19 % max

Q: And the “IFNγ ELISpot % max Mean” value ([2]; listed as Peptide 2*)?
A: 25 % max

Q: What about the “activity relative to Peptide 14 in the cytokine release assays” value ([3]; blood collected after oral gluten challenge) of the same substance?
A: approximately one-half to one-fifth as active as Peptide 14

Q: And the “IFNγ WB MAGPIX % max Mean” value [4]?
A: 23 % max

Q: What about the “IFNγ WB MAGPIX % max Mean” value ([4]; listed as Peptide 2*) of the same substance?
A: 27 % max

Q: With “(pE)GQQGYYPTSPQQSG-amide ([pGlu]GQQGYYPTSPQQSG-NH2; SMILES C[C@@H](O)[C@H](NC(=O)[C@@H]1CCCN1C(=O)[C@H](Cc1ccc(O)cc1)NC(=O)[C@H](Cc1ccc(O)cc1)NC(=O)CNC(=O)[C@H](CCC(N)=O)NC(=O)[C@H](CCC(N)=O)NC(=O)CNC(=O)[C@@H]1CCC(=O)N1)C(=O)N[C@@H](CO)C(=O)N1CCC[C@H]1C(=O)N[C@@H](CCC(N)=O)C(=O)N[C@@H](CCC(N)=O)C(=O)N[C@@H](CO)C(=O)NCC(N)=O) [Peptide 10]” as the substance, how does the “Percent of maximal response … IP-10” value ([1]; Subject 1, Max. 2331 pg/mL) read?
A: 0 % of max

Q: And the “Percent of maximal response … IP-10” value ([1]; Subject 2, Max. 3646 pg/mL)?
A: 0 % of max

Q: What about the “Percent of maximal response … IP-10” value ([1]; Subject 3, Max. 9492 pg/mL) of the same substance?
A: 0 % of max

Q: And the “Percent of maximal response … IP-10” value ([1]; Subject 4, Max. 9463 pg/mL)?
A: 0 % of max

Q: And the “Percent of maximal response … IP-10” value ([1]; Subject 6, Max. 5863 pg/mL)?
A: 0 % of max

Q: And the “Percent of maximal response … IP-10” value ([1]; Subject 7, Max. 2330 pg/mL)?
A: 0 % of max

Q: What about the “Percent of maximal response … IP-10” value ([1]; Subject 10, Max. 8922 pg/mL) of the same substance?
A: 9 % of max

Q: And the “IP-10 WB MAGPIX % max Mean” value [1]?
A: 1 % max

Q: What about the “Percent of maximal response to individual gluten peptides, ELISp” value (shortened to “Percent of maximal response … ELISp”) ([2]; Subject 3, Max. 18 SFU) of the same substance?
A: 17 % of max

Q: What about the “Percent of maximal response … ELISp” value ([2]; Subject 4, Max. 36 SFU) of the same substance?
A: 3 % of max

Q: What about the “Percent of maximal response … ELISp” value ([2]; Subject 8, Max. 17 SFU) of the same substance?
A: 0 % of max

Q: And the “Percent of maximal response … ELISp” value ([2]; Subject 10, Max. 11 SFU)?
A: 9 % of max

Q: And the “IFNγ ELISpot % max Mean” value [2]?
A: 8 % max

Q: And the “cytokine release / immunogenicity of individual peptide” value ([3]; HLA-DQ2.5+ celiac disease subjects after gluten challenge)?
A: weak or not distinguishable from medium alone

Q: And the “Percent of maximal response to individual gluten peptides, IFNg” value (“Percent of maximal response … IFNg” for short) ([4]; Subject 2, Max. 116 pg/mL)?
A: 23 % of max

Q: What about the “Percent of maximal response … IFNg” value ([4]; Subject 3, Max. 799 pg/mL) of the same substance?
A: 0 % of max

Q: What about the “Percent of maximal response … IFNg” value ([4]; Subject 4, Max. 136 pg/mL) of the same substance?
A: 0 % of max

Q: And the “Percent of maximal response … IFNg” value ([4]; Subject 6, Max. 72 pg/mL)?
A: 0 % of max

Q: And the “Percent of maximal response … IFNg” value ([4]; Subject 7, Max. 17 pg/mL)?
A: 0 % of max

Q: And the “Percent of maximal response … IFNg” value ([4]; Subject 8, Max. 47 pg/mL)?
A: 0 % of max

Q: What about the “Percent of maximal response … IFNg” value ([4]; Subject 9, Max. 67 pg/mL) of the same substance?
A: 0 % of max

Q: What about the “Percent of maximal response … IFNg” value ([4]; Subject 10, Max. 229 pg/mL) of the same substance?
A: 9 % of max

Q: What about the “IFNγ WB MAGPIX % max Mean” value [4] of the same substance?
A: 4 % max
